{"source": "patent US10209241B2", "about": "“High throughput sensitization detection devices and methods” (Rutgers, The State University of New Jersey, priority 2011, dated 2019)", "tested_on": "Mutz DCs with T-cells", "experiment": "T-cell activation by sensitized dendritic cells in microfluidic well-trap device (Fluo-4 calcium flux, time lapse microscopy)", "assay_type": "cell-based", "settings": "Mutz DCs sensitized with PPD, Fluo-4 labeled T-cells in the chamber, time lapse microscopy (FIG. 5)", "from_the_text": "T cells are isolated from the peripheral blood mononuclear fraction by positive selection using CD3 microbeads and magnetic cell separator (Miltenyi Biotec Inc., Auburn, Calif.), following the manufacturer's instructions. The T cells are frozen in liquid nitrogen and thawed prior to use. The T-cells are labeled with a calcium sensitive fluorescent dye, Fluo-4. The present method measures the increase in calcium flux into T-cells, as they form immunological synapses with dendritic cells. For labeling, the T cells are suspended at a density of 1-2×10^6 cells/ml in the medium supplemented with the fluo4 dye diluted to a final concentration of 1 μM. The cells are incubated at 37° C. for 20 minutes, and then washed twice to remove the remaining dye in the medium. The labeled T cells are suspended in the fresh medium prior to loading in the microdevice.\nThe device is first primed with PBS. Any bubbles, remaining from the priming process, are removed by placing the device in a vacuum dessicater for 1-2 minutes. Once primed, the device is flushed with media. Dendritic cells (DCs) are introduced into the device from inlet 1, by means of a 2.5 μL pipette. Additional head is provided by topping off the pipette tip attached to the device to the required level. The set-screw valves may be employed to adjust the flow to allow the cells to slow down enough so they can settle. […]", "data": [{"smiles": "Nc1ccc(N)cc1", "note": "[PPD]", "values": [{"measurement": "T-cell clustering around dendritic cells and fluorescence (calcium flux) over time", "result": "Clustering accompanied by increase in fluorescence is observed"}]}]}
